The source of these data is patent US20120214760A1, “TREATMENT OF URINARY TRACT INFECTIONS WITH ANTIBACTERIAL AMINOGLYCOSIDE COMPOUNDS” (Achaogen, Inc., priority 2009, published 2012).

The subject of test [1] is K. pneumoniae AKPN 1109, KPC. As to the kind of experiment: MIC of thigh model strain. Format: cell-based. The note with it: Klebsiella pneumoniae; Table 5; K. pneumoniae KPC AKPN 1109. Here is the method:
(§1) Minimum inhibitory concentrations (MIC) were determined by reference Clinical and Laboratory Standards Institute (CLSI) broth microdilution methods per M7-A7 [2006]. Quality control ranges utilizing E. coli ATCC 25922, P. aeruginosa ATCC 27853 and S. aureus ATCC 29213, and interpretive criteria for comparator agents were as published in CLSI M100-S17 [2007]. Briefly, serial two-fold dilutions of the test compounds were prepared at 2× concentration in Mueller Hinton Broth. The compound dilutions were mixed in 96-well assay plates in a 1:1 ratio with bacterial inoculum. The inoculum was prepared by suspension of a colony from an agar plate that was prepared the previous day. Bacteria were suspended in sterile saline and added to each assay plate to obtain a final concentration of 5×10^5 CFU/mL. The plates were incubated at 35° C. for 20 hours in ambient air.

Test [2] relates to K. pneumoniae ATCC 43816, Susceptible. Kind of test: MIC of thigh model strain. The format is cell-based. The conditions noted are these: Klebsiella pneumoniae, ATCC43816; Table 5; K. pneumoniae Susceptible ATCC 43816. How it is done: as §1
Test [3] has as its system K. pneumoniae AKPN 1073, MDR. As to the kind of experiment: MIC of thigh model strain. Format: cell-based. The conditions noted are these: Klebsiella pneumoniae; Table 5; K. pneumoniae MDR AKPN 1073. How it is done:
as §1

For test [4], the system named is S. aureus ATCC 33591, MRSA. As to the kind of experiment: MIC of thigh model strain. The conditions noted are these: Staphylococcus aureus; Table 5; S. aureus MRSA ATCC 33591; read-out: MIC. Format: cell-based. How it is done: as §1
Test [5] relates to S. marcescens ASMA 1030, KPC. Kind of test: MIC of thigh model strain. The conditions noted are these: Serratia marcescens; Table 5; S. marcescens KPC ASMA 1030. Format: cell-based. Here is the method:
as §1

The test system of another test is E. coli AECO 1003, MDR. As to the kind of experiment: MIC of thigh model strain. Format: cell-based. The note with it: Escherichia coli; Table 5; E. coli MDR AECO 1003; read-out: MIC. Here is the method: as §1
Test [6] deals with K. pneumoniae AKPN 1109, KPC. Kind of test: Murine neutropenic thigh model. The format is in vivo. How it is done:
Activity is presented as the log10 difference in CFU/thigh after 24 hours of antibiotic treatment compared to CFU/thigh just prior to antibiotic treatment (2 hours post-infection). Total dose per 24 hours is shown; dosing was q12 hours. 6 mice per group, Inoculum=8.3×10^5 CFU.
The in vivo activity of Example 1 in the mouse neutropenic thigh model (Andes and Craig. Antimicrob Agents Chemother. 2002, 46:1665-1670) was determined against seven bacterial strains including susceptible Escherichia coli and Klebsiella pneumoniae; multi-drug resistant (MDR) clinical isolates of E. coli and K. pneumoniae that display resistance to multiple antibiotics (including AGs); MRSA; and two K. pneumoniae carbapenemases (KPC)-expressing strains (see Table 5). For this efficacy model, groups of six CD-1 mice were rendered neutropenic by two intraperitoneal injections of cyclophosphamide. The first injection was 150 mg/kg three days prior to infection (day −4), and the second injection was 100 mg/kg one day prior to infection (day −1). On study day 0, animals were inoculated intramuscularly (0.1 ml) with a known number of colony forming units (CFU) of the specified bacterial strain (ATCC 25922, AECO 1003, ATCC 43816, AKPN 1073, AKPN 1109, ATCC 33591 or ASMA 1030), tailored to the virulence of each strain in the model to maximize bacterial load while avoiding mortality in the untreated control arms. Antibiotics were administered via subcutaneous injection at 2 and 14 hours after bacterial challenge. At 26 hours, infected thigh tissue was harvested, homogenized, and plated to count CFU. Untreated control animals were harvested at 2 hours post-infection to assess the initial bacterial load and at 26 hours post-infection to measure growth in the absence of antibiotic treatment.

The test system of test [7] is E. coli AECO040, AAC(6′)-I. As to the kind of experiment: MIC, aminoglycoside resistant strain. The format is cell-based. The conditions noted are these: Table 3. How it is done:
as §1
(§2) These MIC assays were conducted following the same protocol as set forth in Example 110. As shown, substituted sisomicin derivatives with groups other than methyl at the 6′-position have improved activity against strains expressing the AAC6′-modifying enzymes.

The test system of test [8] is S. marcescens ASMA003, ANT(2″) + AAC(6′). As to the kind of experiment: MIC, aminoglycoside resistant strain. The conditions noted are these: Table 3. The format is cell-based. Here is the method:
as §1, §2

Test [9] deals with A. calcoaceticus AACA005, AAC(6′)-I. Kind of test: MIC, aminoglycoside resistant strain. The format is cell-based. The note with it: Table 3. How it is done:
as §1, §2

SMILES strings stand for the structures. In brackets after ≈: the same amount, converted by molar mass.

Usually MIC stands for the smallest concentration in the dilution series that meets the test's criterion for growth inhibition. By ED50 is commonly meant the dose that gives a 50% effect, or the effect in half of the subjects. `CN[C@@H]1[C@@H](O)[C@@H](O[C@@H]2[C@@H](O)[C@H](O[C@H]3OC(CNCCO)=CC[C@H]3N)[C@@H](N)C[C@H]2NC(=O)[C@@H](O)CCN)OC[C@]1(C)O` [Example 1, 6′-(2-Hydroxy-ethyl)-1-(4-amino-2(S)-hydroxy-butyryl)-sisomicin]: the MIC in test [1] is 0.25 to 0.5 µg/mL; in test [2], 0.5 µg/mL; in test [3], 0.5 µg/mL; in test [4] it was 4 to 8 µg/mL; in [5], 1 µg/mL; with E. coli AECO 1003, MDR, 1 µg/mL. In test [6] (K. pneumoniae AKPN 1109), the ED50/MIC is given as 18-37. Moreover, in test [6] (Klebsiella pneumoniae, sc, neutropenic CD-1 mice, subcutaneous at 2 and 14 hours, K. pneumoniae AKPN 1109), the ED50 turned out to be 9.2 mg/kg. Also, the “bacterial load after 24 hours of treatment versus initial bacterial load at 2 hours post-inoculation” value in [6] (highest test dosage, challenge 8.3×10^5 CFU AKPN 1109, FIG. 3) was “reduced back to the level of the initial bacterial load”. In addition, the MIC AECO040 in [7] came out at 0.5 µg/mL (≈ 0.844 µM). The MIC ASMA003 in test [8] is 2 µg/mL (≈ 3.37 µM). Moreover, in [9], the MIC AACA005 is 2 µg/mL (≈ 3.37 µM).
